Results from patent US20050031537A1, “Multifunctional COX-2 inhibitors” (priority 2002, published 2005).

How the values were obtained:
PPRE luciferase = PPRE luciferase activation, transient transfection reporter assay (test (a)); type: cell-based, human; settings: for Test (a) activation of PPRE luciferase by at least 100%: positive in 184B5, 184B5/HER, HCA7, HCT116, SKBR3 and BT474 cells, 24 h treatment
Description: We turn now to criterion (a), that is activation of PPRE luciferase by at least 100%. PPRE-luciferase refers to a DNA construct containing the peroxisome proliferator activated receptor (PPAR) binding element joined to luciferase. Cells are transfected with PPRE-luciferase DNA. Ligands of PPAR induce luciferase activity. The ability of a test compound to stimulate PPRE-luciferase signifies that the test compound activates PPAR-mediated gene transcription. PPRE means peroxisome proliferator response element and the method by which PPRE-luciferase is constructed is described in Schoonjans, K., et al, J. Biol. Chem. 270, No. 33, 19269-19276 (Aug. 18, 1995). Use of PPRE-luciferase in a transient transfection to measure increase in promoter activity is disclosed in Subbaramaiah, K. et al, J. Biol. Chem. 270, No. 15, 12440-12448 (Apr. 13, […]).
For each well, 1.8 μg of PPRE3-tk-luciferase construct plasmid DNA (described in Forman, B. M., et al, Cell 83, 803 (1995)) plus 0.2 μg of pSV-β-galactosidase were introduced into cells using 8 μg of LipofectAMINE as per the manufacturer's instructions (Invitrogen, CA). After 7 h of incubation, the medium was replaced with basal medium. After transfection, cells were treated with test compound for 24 h. Reporter activities which include luciferase and β-galactosidase were measured in cellular extract 24 h later. Six wells were used for each of the conditions. Luciferase activity represents data that have been normalized with β-galactosidase.
The luciferase assay was performed as per the BD Pharmingen assay reagents. The Enhanced Luciferase Assay Kit provides a firefly luciferase substrate formulation (Substrates A and B) and cell lysis buffer intended for use in measuring luciferase expressed by transfected cells. Media from cell culture plates was removed and rinsed twice with phosphate buffered saline. Enough 1X cell lysis buffer was added to cover cells and incubated at room temperature for 15-20 min. Cells were dislodged by scraping and transferred to microcentrifuge tubes. […] 20-100 μl cell extract was placed into an assay cuvette. One automatic injector type luminometer is used for assay. Manually 100 μl of Substrate A was added to the assay cuvette and automatically 100 μl of Substrate B was injected. Measurements were performed using a luminometer, for a measurement time of 10 seconds.
The β-galactosidase assay was performed as follows:
50 μl of cell lysate from above was incubated with 50 μl of o-nitrophenyl-β-D-galactoside (ONPG; 4 mg/mL) in Z buffer, (Na2HPO4.7H2O (0.06M), NaH2PO4.H2O (0.04M), 1M KCl (0.01M), 1M MgSO4 (0.001M), β-mercaptoethanol (BME) (0.05M) pH 7.0). The reaction was stopped after sufficient yellow color has developed. The yellow color developed is measured at A420 […].

EGFR = assay: Western blotting for expression of EGFR (test (b)); type: cell-based, human; settings: for Test (b) EGFR: at least 50% decrease in level of or 50% downregulation of expression: positive in 184B5, 184B5/HER, 1483, LNCaP, HeLa and CaSki cells, 24 h, Western blot
Description: We turn now to the criterion (b), that is at least 50% decrease in level of or 50% downregulation of expression of Class I family of receptors tyrosine kinase. The Class I family of receptors tyrosine kinase is described in Reese, M. D., et al Stem Cells 15, pages 1-8 (1997), the whole of which in incorporated herein by reference. Members of the family include HER-2/neu, HER-3, HER-4 and epidermal growth factor receptor (EGFR) and are single-chain membrane spanning proteins which have significant homology to one another including about 80% amino acid identity in the tyrosine kinase domain.
Epidermal growth factor receptor (EGFR) is a 170 kDA glycoprotein. […] After ligand binding, EGFR undergoes dimerization which is essential for activation of its enzymatic kinase activity. EGFR is thus autophospliorylated and transphosphorylated on tyrosine residues, and the phosphorylated residues become the site of association of effector proteins. Overexpressed EGFR is intimately involved in modulating the epidermal growth factor growth signal and is considered as likely to confer a growth advantage. This conclusion is supported by the observation that tumor growth in nude mice is inhibited by treatment with anti-EGFR antibodies and tumorigenicity in nude mice is inhibited through blockage of the tyrosine kinase activity of the receptor.
To evaluate the expression of Class I family of receptors tyrosine kinase (EGFR, HER-2/neu), Western blotting can be performed. Antibodies for EGFR and HER-2/neu can be obtained from Santa Cruz Biotechnology, Inc.
Expression of EGFR (performed in 184B5, 184B5/HER, 1483, LNCaP, HeLa and CaSki cells)and HER-2/neu (performed in 184B5/HER, SKBR3 and BT474 cells) was assessed in cells after treatment with test compound for 24 hours. 5×10^6 cells were used for the treatment. Western blotting technique was used to assess the expression levels in cells treated with the test compound compared to vehicle alone. Western blotting was carried out as follows:
Cell lysates were prepared by treating cells with lysis buffer (150 mM NaCl, 100 mM Tris (pH 8.0), 1% Tween 20, 50 mM diethyldithiocarbamate, 1 mM EDTA, 1 mM phenylmethylsulfonyl fluoride, 10 μg/ml aprotinin, 10 μg/ml trypsin inhibitor and 10 μg/ml leupeptin). Lysates were sonicated for 20 s on ice and centrifuged at 10,000×g for 10 min to sediment the particulate material. The protein concentration of the supernatant was measured by the method of Lowry, O. H., et al., J. Biol. Chem. 193, 265-275 (195 1). SDS/PAGE was performed under reducing conditions on 10% polyacrylamide gels as described by Laemmli, U.K., Nature (Lond.) 227, 680-685 (1970). The resolved proteins were transferred onto nitrocellulose sheets as detailed by Towbin, H. et al., Proc. Natl. Acad. Sci. USA 76, 4350-4354 (1979). The nitrocellulose membrane was then incubated with anti-EGFR antiserum or anti-HER-2/neu antiserum. Secondary antibody to IgG conjugated to horseradish peroxidase was used. The various antisera were purchased from Santa Cruz Biotechnology, Inc., CA. The blots were probed with the Renaissance Western blot detection system according to the manufacturer's instructions (PerkinElmer Life Sciences, Boston, Mass.).

Row | Compound | Test (a) activation of PPRE luciferase by at least 100% (PPRE luciferase) | Test (b) EGFR: at least 50% decrease in level of or 50% downregulation of expression (EGFR) | activation of the promoter (PPRE-luciferase) (PPRE luciferase; 184B5 cells, 24 hours, highest concentration) | decrease in level of EGFR (EGFR; 184B5 cells, 24 hours, Western blotting)
1 | Cc1ccc(-c2cc(C(F)(F)F)nn2-c2ccc(S(N)(=O)=O)cc2)cc1 [Celecoxib] | + (A plus sign in the table indicates a positive result, that is meeting the test for each cell line as indicated above as providing a positive result) | + (A plus sign in the table indicates a positive result, that is meeting the test for each cell line as indicated above as providing a positive result) |  | 
2 | CCCCCCCOC(=O)Cc1c(C)n(C(=O)c2ccc(Cl)cc2)c2ccc(OC)cc12 [Indomethacin Analog 1, indomethacin heptyl ester] | + (A plus sign in the table indicates a positive result, that is meeting the test for each cell line as indicated above as providing a positive result) | + (A plus sign in the table indicates a positive result, that is meeting the test for each cell line as indicated above as providing a positive result) |  | 
3 | COc1ccc(OC(=O)Cc2c(C)n(C(=O)c3ccc(Cl)cc3)c3ccc(OC)cc23)cc1 [Indomethacin Analog 3, 1-(p-chlorobenzoyl)-5-methoxy-2-methyl-1H-indole-3-acetic acid, 4-methoxyphenyl ester] | + (A plus sign in the table indicates a positive result, that is meeting the test for each cell line as indicated above as providing a positive result) | + (A plus sign in the table indicates a positive result, that is meeting the test for each cell line as indicated above as providing a positive result) |  | 
4 | NS(=O)(=O)c1ccc(-n2nc(C(F)(F)F)cc2-c2ccc(Cl)cc2)cc1 [SC-236, 4-[5-(4-chlorophenyl)-3-(trifluoromethyl)-1H-pyrazol-1-yl]benzenesulfonamide] | + (A plus sign in the table indicates a positive result, that is meeting the test for each cell line as indicated above as providing a positive result) | + (A plus sign in the table indicates a positive result, that is meeting the test for each cell line as indicated above as providing a positive result) | 150% | more than 50%
5 | CS(=O)(=O)c1ccc(-n2nc(C(F)(F)F)cc2-c2ccc(F)cc2)cc1 [SC-58125, 4-[5-(4-fluorophenyl)-3-(trifluoromethyl)-1H-pyrazol-1-yl]benzenemethylsulfone] | + (A plus sign in the table indicates a positive result, that is meeting the test for each cell line as indicated above as providing a positive result) | + (A plus sign in the table indicates a positive result, that is meeting the test for each cell line as indicated above as providing a positive result) |  | 
